Laboratory results as given in US7628991B2, “Use of Lactobacillus farciminis for the prevention or treatment of digestive pathologies” (Institute National de la Recherche Agronomique (INRA), priority 2002, dated 2009).

Assays:
[1] = tested on: colonic inflammation induced by TNBS/ethanol; test: Myeloperoxidase (MPO) activity of the colon wall, TNBS/ethanol-induced colitis (Example 1); assay type: in vivo, WISTAR rats; conditions: rats without TNBS/ethanol (0.9% NaCl instillation); intracolonic infusion for 4 days
From the text: (§1) This colitis is characterized by an increase in myeloperoxidase (MPO) activity, a marker of the degree of infiltration of polynuclear neutrophils in the colonic mucosa, and by the increase in the macroscopic lesion score (MLS) taking into account the seriousness and the extent of the macroscopic lesions appearing, the presence and seriousness of adherences and the presence or nonpresence of diarrhea in the colon.
The effects of a treatment with a nitric oxide donor, sodium nitroprusside (SNP), or with L. farciminis on a TNBS-induced colitis in rats were compared. Moreover, the effective role of exogenous nitric oxide in these effects was evaluated using an NO scavenger, hemoglobin (Hb). […]
The myeloperoxidase (MPO) activity is determined on colon samples isolated according to the protocol described by BRADLEY et al. (J. Invest. Dermatol., 78, 206-209, 1982). […]
The MPO activity is determined by spectrophotometry. […] The changes in absorbance. (450 nm, 25° C.) were determined by kinetic spectrophotometry of 2 minutes, according to the balanced equation for the enzymatic reaction catalyzed by MPO: H2O2+Cl^−=H2O+HOCl (orange color), and expressed as MPO units.
One MPO activity unit is defined as the quantity of MPO degrading 1 μmol of hydrogen peroxide per minute per milliliter at 25° C. […]

[2] = tested on: colonic inflammation induced by TNBS/ethanol; test: Macroscopic lesion score (MLS) of the colon, TNBS/ethanol-induced colitis (Example 1); assay type: in vivo, WISTAR rats; conditions: rats instilled with TNBS/ethanol, 4 days after instillation; daily intracolonic infusion; SNP 1 mg/kg/day, Hb 200 mg/kg/day
From the text: as §1
For the study of the effects of SNP, 7 groups of WISTAR rats of 200-250 grams were provided, under anesthetic, with an intracolonic catheter (+2 cm from the caeco-colonic junction) exteriorized at the level of the dorsoscapular region. At D+5, the rats receive an intracolonic instillation of 80 mg/kg/day of TNBS/ethanol (groups 4-7) or of a 0.9% NaCl solution (groups 1-3). 4 hours after the instillation, the rats are infused at a flow rate of 250 μl/hour with 1 mg/kg/day of SNP (groups 2 and 5), or 200 mg/kg/day of Hb (groups 3 and 7), or an SNP+Hb mixture (group 6), or a 0.9% NaCl solution (groups 1 and 4), for 4 days. […]
The macroscopic lesion score (MLS) is determined on isolated colonic samples as described by WALLACE et al., (Gastroenterology, 102, 18-27, 1992) according to the assessment grid below: […]

hemoglobin [Hb]
MPO activity of the colon wall [1]: 426±117 MPO U/g of proteins | Macroscopic lesion score (MLS) [2]: 5.8±1.3
